# From patent US11607422B2, “Uttroside B and derivatives thereof as therapeutics for hepatocellular carcinoma” (Rajiv Gandhi Centre for Biotechnology, an Autonomous …, priority 2016, dated 2023)
# Assays:
# Type in all cases: cell-based, human
# HepG2 cells [1] = experiment: MTT cell viability assay in HepG2 cells; conditions: 72 h, MTT assay; read-out: IC50, cytotoxicity towards HepG2 cells
# Procedure: Stocks of crude extracts and isolated compound of S. nigrum was prepared in DMSO for the in vitro studies and stored at −20° C. The DMSO concentration in all studies, including controls, was ≤0.2%. Cell viability assay was performed after 72 h of drug treatment while whole cell lysate preparation and cell cycle analysis were done after 24 h and 48 h of drug treatment. For studying NF-κB and AP-1, Uttroside B was incubated for 2 h before extraction.
# MTT [3-(4,5-dimethylthiazole-2-yl)-2,5-diphenyltetrazolium bromide] assay is a standard colorimetric assay, suitable for analyzing proliferation, viability, and cytotoxicity. Briefly, the HepG2 cells were seeded in 96-well plates (2000 cells/well). […] Fresh media containing 25 μL of MTT solution (5 mg/mL in PBS) and 75 μL of complete medium was added to the wells and incubated for 2 h. At the end of incubation, lysis buffer (20% sodium dodecyl sulphate in 50% dimethyl formamide)was added to the wells (0.1 mL/well) and incubated for another 1 h at 37° C. At the end of incubation, the optical density was measured at 570 nm using ELISA plate reader (Bio-Rad). The relative cell viability in percentage was calculated as (A570 of treated samples/A570 of untreated samples)×100. The IC50 values were extrapolated from polynomial regression analysis of study data.^17
# [2] = system: mTOR pathway in HepG2 cells; experiment: Western blot of mTOR and downstream target phosphorylation
# Procedure: FIGS. 4A-4E are images showing Uttroside B inhibits MAPK and mTOR signaling, some of the crucial survival signals in liver cancer. […] HepG2 cells were treated with Uttroside B for different time intervals (0-240 min) and the whole cell lysate was resolved on a 10% gel and immunoblotted against phospho-ERK1/2 and phospho-Akt antibodies. Taxol was used as a positive control. […] HepG2 cells were treated with Uttroside B at different time intervals and the whole cell lysate was resolved on an 8% gel and immunoblotted against phospho-mTOR (2448) and phospho-mTOR (2481) antibodies.
# Western blot analysis. Approximately 0.5×10^6 cells were grown on 60 mm culture plates and exposed to drugs as indicated for the desired time. The cells were then scraped out, washed in ice cold 1× PBS and pelleted down at 13000 rpm for 2 min. […]
# Uttroside B inhibits mTOR signaling, a crucial survival signal in liver cancer. […] Concomitantly, the phosphorylation of p70S6 kinase and 4E-BP-1, two m-TOR substrates whose phosphorylation can be considered as the read out of m-TOR activity, was found reduced in response to Uttroside B-treatment. […]
# HepG2 cells [3] = experiment: Phase contrast microscopy of morphological changes in HepG2 cells
# Procedure: FIG. 2A is a graph comparison of IC50 of Uttroside B in a panel of cancer cells of different origin. The cancer cell lines HeLa, A375, HepG2, MDA-MB-231, HL 60, A549 and HCT116 were treated with Uttroside B as indicated, incubated for 72 h and the cell viability was assessed by MTT assay. FIG. 2B is a graph showing dose dependent effect of Uttroside B in the liver cancer cell lines and in normal immortalized hepatocytes. The liver cancer cell lines HepG2, Hep3B, SKHEP-1, Huh-7 and normal hepatocytes (Chang liver), were treated with Uttroside B incubated for 72 h and the cell viability was assessed by MTT assay. FIG. 2C is a graph comparison of IC50 of Uttroside B with sorafenib. HepG2 cells were treated with Uttroside B as indicated, incubated for 72 h, and the cell viability was assessed by MTT assay. FIG. 2D is an image of the morphological changes induced by Uttroside B in HepG2 cells. […] FIG. 2E is an image showing Uttroside B inhibits the clonogenic potential of HepG2 cells. HepG2 cells were treated with different concentrations of Uttroside B for 72 h and the clonogenic assay was performed. FIG. 2F is a graph comparison of efficacy of Uttroside B in inhibiting the clonogenic potential of HepG2 cells. The clones developed were counted and plotted as a graph. Colony containing more than four cells was counted as one clone. […]
smiles,measurement,setting,value
C[C@H](CC[C@@]1(O)O[C@H]2C[C@H]3[C@@H]4CC[C@H]5C[C@@H](O[C@@H]6O[C@H](CO)[C@H](O[C@@H]7O[C@H](CO)[C@@H](O)[C@H](O[C@@H]8OC[C@@H](O)[C@H](O)[C@H]8O)[C@H]7O[C@@H]7O[C@H](CO)[C@@H](O)[C@H](O)[C@H]7O)[C@H](O)[C@H]6O)CC[C@]5(C)[C@H]4CC[C@]3(C)[C@H]2[C@@H]1C)CO[C@@H]1O[C@H](CO)[C@@H](O)[C@H](O)[C@H]1O [Uttroside B],IC50,HepG2 cells [1],500 nM
same,phosphorylation of p70S6 kinase and 4E-BP-1,[2],found reduced
same,phosphorylation of mTOR,[2]; different time intervals,time dependent decrease in the phosphorylation of m-TOR at 2448 and 2481 phosphorylation sites
same,morphological changes characteristic of apoptosis,"HepG2 cells [3]; 72 h, dose dependent","Nuclear condensation, membrane blebbing and formation of apoptotic bodies"
same,vacuole formation,"HepG2 cells [3]; HepG2, 24 h",induces vacuole formation
